According to publication PMC7144155 (ACS Omega, 2020):
≈ marks a conversion by molar mass, not a printed value. Where “and” joins values, the source holds several entries; their conditions need not be identical. Equal entries are not always repeated.

Experiments:
traumatic brain injury = conditions: after traumatic brain injury; cited from earlier work
[1] = test system: formalin-injected paw model of pain; conditions: coadministration 450 μg/paw; P < 0.001; cited from earlier work
[2] = test system: human glioblastoma U87MG-implanted nude CG1 mice; conditions: i.p. 50 mg/(kg day) for 15 days; decreasing Ki67 positive cells; cited from earlier work
[3] = molecular target: T1, human dopamine D3 receptor (hD3R) (Homo sapiens, UniProt P35462); test: GPCR functional assay, agonist effect; type: cell-based; conditions: for % stimulation: D3 (h), % of control response to 300 nM dopamine at 50 μM of anthraquinones
T1 sequence (P35462 whole entry): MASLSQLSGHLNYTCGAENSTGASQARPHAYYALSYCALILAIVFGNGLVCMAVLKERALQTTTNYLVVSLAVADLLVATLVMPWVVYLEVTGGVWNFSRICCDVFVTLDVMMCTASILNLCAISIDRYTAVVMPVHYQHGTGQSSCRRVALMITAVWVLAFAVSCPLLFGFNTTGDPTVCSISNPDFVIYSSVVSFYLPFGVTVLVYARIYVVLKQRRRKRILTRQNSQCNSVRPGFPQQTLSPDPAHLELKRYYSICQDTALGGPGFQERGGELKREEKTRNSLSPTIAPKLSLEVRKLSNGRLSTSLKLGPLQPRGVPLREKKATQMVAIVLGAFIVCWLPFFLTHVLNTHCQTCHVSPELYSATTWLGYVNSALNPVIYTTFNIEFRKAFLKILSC

[4] = molecular target: T2, human dopamine D4 receptor (hD4R) (Homo sapiens, UniProt P21917); test: GPCR functional assay, antagonist effect; type: cell-based; conditions: for inhibition at 50 µM: CHO
T2 sequence (P21917 1-419): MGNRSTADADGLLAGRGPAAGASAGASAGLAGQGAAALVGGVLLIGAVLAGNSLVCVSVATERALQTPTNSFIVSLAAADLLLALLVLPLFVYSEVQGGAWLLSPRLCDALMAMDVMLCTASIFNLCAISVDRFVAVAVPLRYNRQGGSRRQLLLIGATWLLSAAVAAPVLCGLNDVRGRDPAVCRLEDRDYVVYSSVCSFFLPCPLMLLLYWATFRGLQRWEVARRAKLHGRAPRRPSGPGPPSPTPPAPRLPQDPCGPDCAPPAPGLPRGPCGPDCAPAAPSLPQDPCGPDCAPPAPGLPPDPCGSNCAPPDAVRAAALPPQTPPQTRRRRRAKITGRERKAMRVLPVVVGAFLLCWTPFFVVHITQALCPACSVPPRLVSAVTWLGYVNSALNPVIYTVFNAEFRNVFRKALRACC

[5] = molecular target: T3, human vasopressin V1A receptor (hV1AR) (Homo sapiens, UniProt P37288); test: cell-based
T3 sequence (P37288 whole entry): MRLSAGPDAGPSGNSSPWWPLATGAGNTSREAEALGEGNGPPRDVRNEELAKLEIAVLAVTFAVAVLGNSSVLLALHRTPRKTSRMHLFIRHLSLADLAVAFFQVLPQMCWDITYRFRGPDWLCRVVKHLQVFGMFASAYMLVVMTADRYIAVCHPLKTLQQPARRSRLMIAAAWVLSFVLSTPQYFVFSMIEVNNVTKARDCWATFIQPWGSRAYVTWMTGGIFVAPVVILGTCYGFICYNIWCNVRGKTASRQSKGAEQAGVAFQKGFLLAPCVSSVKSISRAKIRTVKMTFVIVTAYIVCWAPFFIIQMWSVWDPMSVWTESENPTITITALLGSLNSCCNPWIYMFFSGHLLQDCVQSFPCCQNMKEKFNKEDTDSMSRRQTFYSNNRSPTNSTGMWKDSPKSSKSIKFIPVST

[6] = molecular target: T4, human 5-HT1A receptor (h5-HT1AR) (Homo sapiens, UniProt P08908); test: GPCR functional assay, antagonist effect; type: cell-based; conditions: for % inhibition: 5-HT1A (h), % inhibition of control response to 30 nM serotonin at 50 μM of anthraquinones
T4 sequence (P08908 1-422): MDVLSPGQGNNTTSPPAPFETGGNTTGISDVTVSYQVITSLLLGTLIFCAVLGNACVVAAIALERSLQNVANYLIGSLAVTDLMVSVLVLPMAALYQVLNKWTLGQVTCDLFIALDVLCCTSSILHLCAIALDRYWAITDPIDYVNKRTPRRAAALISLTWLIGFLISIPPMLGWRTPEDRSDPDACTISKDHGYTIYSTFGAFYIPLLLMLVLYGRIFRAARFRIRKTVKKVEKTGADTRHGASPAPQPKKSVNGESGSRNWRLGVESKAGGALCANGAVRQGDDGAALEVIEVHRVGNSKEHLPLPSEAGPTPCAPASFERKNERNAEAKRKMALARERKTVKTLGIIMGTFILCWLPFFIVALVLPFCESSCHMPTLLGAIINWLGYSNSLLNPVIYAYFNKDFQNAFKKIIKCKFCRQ

[7] = molecular target: T1, human dopamine D3 receptor (hD3R); test: GPCR functional assay, antagonist effect; type: cell-based; conditions: for % inhibition: D3 (h), % inhibition of control response to 10 nM dopamine at 50 μM of anthraquinones
[8] = molecular target: T3, human vasopressin V1A receptor (hV1AR); test: GPCR functional assay, agonist effect; type: cell-based; conditions: for % stimulation: V1A (h), % of control response to 1 μM AVP at 50 μM of anthraquinones; for agonist response at hV1AR (in words): up to 50 μM
acetylcholinesterase = conditions: cited from earlier work
[9] = molecular target: T5, human dopamine D1 receptor (hD1R) (Homo sapiens, UniProt P21728); test: GPCR functional assay, antagonist effect; type: cell-based; conditions: CHO
T5 sequence (P21728 whole entry): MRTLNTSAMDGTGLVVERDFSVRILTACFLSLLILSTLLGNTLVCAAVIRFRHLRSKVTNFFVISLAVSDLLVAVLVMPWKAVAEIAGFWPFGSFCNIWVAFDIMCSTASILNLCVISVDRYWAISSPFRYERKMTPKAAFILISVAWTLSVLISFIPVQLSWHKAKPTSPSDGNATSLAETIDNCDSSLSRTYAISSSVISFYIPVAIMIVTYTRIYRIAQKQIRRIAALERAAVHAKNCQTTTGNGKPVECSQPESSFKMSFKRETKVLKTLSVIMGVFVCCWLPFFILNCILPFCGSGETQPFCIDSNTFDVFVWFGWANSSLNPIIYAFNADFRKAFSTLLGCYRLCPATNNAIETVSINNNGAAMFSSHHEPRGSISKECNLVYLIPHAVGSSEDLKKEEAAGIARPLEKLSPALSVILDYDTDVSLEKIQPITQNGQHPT

[10] = molecular target: T2, human dopamine D4 receptor (hD4R); test: GPCR functional assay, agonist effect; type: cell-based; conditions: D4 (h); % of control agonist (dopamine) response at 50 μM of anthraquinones
[11] = molecular target: T4, human 5-HT1A receptor (h5-HT1AR); test: GPCR functional assay, agonist effect; type: cell-based; conditions: 5-HT1A (h); % of control response to serotonin (2.5 μM) at 50 μM of anthraquinones
[12] = molecular target: T5, human dopamine D1 receptor (hD1R); test: GPCR functional assay, agonist effect; type: cell-based; conditions: D1 (h); % of control agonist (dopamine) response at 50 μM of anthraquinones
U87MG cells = conditions: 20 and 40 μM; cited from earlier work
[13] = test system: cerebral ischemia/reperfusion (I/R) model rats; conditions: intraperitoneal injection, 25 g/(kg day); cited from earlier work
[14] = test system: human epidermoid carcinoma A431 cell; conditions: 100 μM, 4 nM (−)-epinephrine, 2 μM nicotinic acid, 8 μM histamine; cited from earlier work
[15] = 20 and 40 mg/kg, rapid phase II metabolism to glucuronide; cited from earlier work
[16] = test system: cycloheximide-induced amnesia in rats; conditions: cited from earlier work

## COc1ccc(S(=O)(=O)N2c3ccc(Cl)cc3[C@](O)(c3ccccc3Cl)[C@@H]2C(=O)N2CCC[C@H]2C(N)=O)cc1OC [SR49059, (2S)1-{(2R,3S)-5-chloro-3-(2-chloro-phenyl)-1-(3,4-dimethoxybenzene-sulfonyl)-3-hydroxy-2,3-dihydro-1H-indole-2-carbonyl}pyrrolidine-2-carboxamide]
Traumatic brain injury
  brain edema: prevented brain edema

## COc1ccccc1N1CCN(CC(C(=O)NC(C)(C)C)c2ccccc2)CC1 (stereo not drawn) [WAY 100 135]
[1]
  phase 2 (long lasting) intense flinching behavior: inhibited

## O=C1c2cccc(O)c2C(=O)c2c(O)cc(CO)cc21 [aloe-emodin]
[2]
  effect in mouse brain tumour model: showed antiproliferative effect
[3]
  % stimulation: –57.95 ± 32.88%
[4]
  hD4R antagonist effect (in words): mild antagonist effect
  inhibition at 50 µM: 25.7%
[5]
  effect on hV1AR (in words): did not have any observable effect
[6]
  antagonist effect on h5-HT1AR (in words): remained ineffective
  % inhibition: 1.55 ± 3.61%
[7]
  hD3R antagonist effect (in words): mild hD3R antagonist effect
  % inhibition: 20.60 ± 6.79%
[8]
  % stimulation: 7.45 ± 1.20%
  agonist response at hV1AR (in words): did not show any agonist response
acetylcholinesterase
  IC50 (acetylcholinesterase activity): 18.37 µg/mL (≈ 68 µM)
[9]
  inhibition at 50 µM: -47.9%
[10]
  % stimulation: -53.15 ± 7.00%
[11]
  % stimulation: 3.45 ± 0.21%
[12]
  % stimulation: 0.15 ± 4.45%
U87MG cells
  cell cycle effect: induced cell cycle arrest

## Cc1cc(O)c2c(c1)C(=O)c1cc(O)cc(O)c1C2=O [emodin]
[13]
  neurological deficit scores: improved neurological deficit scores
[3]
  EC50: 21.9 ± 2.66 µM
  % stimulation: 75.6% and 75.60 ± 12.87%
[4]
  inhibition at 50 µM: -0.35%
[5]
  IC50: 10.2 ± 1.97 µM
[5]; CHO, read-out: inhibition of 10 nM AVP-induced intracellular Ca2+ concentration
  inhibition at 12.5 µM: > 50%
[5]; V1A (h), % inhibition of control response to 10 nM AVP at 50 μM of anthraquinones
  % inhibition: 69.35 ± 1.34%
[6]
  antagonist effect on h5-HT1AR (in words): remained ineffective
  % inhibition: 18.4 ± 3.89%
[7]
  % inhibition: −10.8 ± 6.59%
[8]
  % stimulation: –4.80 ± 0.69%
  agonist response at hV1AR (in words): did not show any agonist response
[9]
  inhibition at 50 µM: -10.2%
[14]
  effect on agonist-induced dynamic mass redistribution signals: inhibited
[10]
  % stimulation: 2.35 ± 2.76%
[11]
  % stimulation: –3.56 ± 0.21%
[12]
  % stimulation: –3.55 ± 0.64%
[15]
  parent form in vivo after oral administration: almost undetectable
[16]
  cycloheximide-induced amnesia: improved cycloheximide-induced amnesia

## COc1cc(O)cc2c1C(=O)c1c(O)cc(C)cc1C2=O [questin]
[3]
  hD3R agonist effect (in words): moderate hD3R agonist effect
  % stimulation: 34.85% and 34.85 ± 0.78%
[4]
  inhibition at 50 µM: 4.5%
[5]
  effect on hV1AR (in words): did not have any observable effect
[6]
  antagonist effect on h5-HT1AR (in words): remained ineffective
  % inhibition: 0.70 ± 4.10%
[7]
  % inhibition: 1.25 ± 7.42%
[8]
  % stimulation: –3.40 ± 0.71%
  agonist response at hV1AR (in words): did not show any agonist response
[9]
  inhibition at 50 µM: 10.9%
[10]
  % stimulation: –38.15 ± 15.91%
[11]
  % stimulation: 2.45 ± 0.49%
[12]
  % stimulation: –2.10 ± 0.85%
